Measurements as given in patent US20260070945A1, “MACROCYCLIC IMMUNOMODULATORS” (Bristol-Myers Squibb Company, priority 2022, published 2026).
Where a SMILES comes first, the peptide text is derived from it. Bridges are numbered along the chain shown (N, C = ends). [ ]: non-standard residue; d: D form. The star is where a group is joined. Phe(3-CF3) = N[C@@H](Cc1cccc(C(F)(F)F)c1)C(=O)O; Phe(4-COOH) = N[C@@H](Cc1ccc(C(=O)O)cc1)C(=O)O; Bip = N[C@@H](Cc1ccc(-c2ccccc2)cc1)C(=O)O; NH(CH2)12COOH = O=C(O)CCCCCCCCCCCCN*; Val(3-OH) = CC(C)(O)[C@H](N)C(=O)O; Cha = N[C@@H](CC1CCCCC1)C(=O)O; Cit = NC(=O)NCCC[C@H](N)C(=O)O; Carboxymethyl = O=C(O)C*; NMeA = CN[C@@H](C)C(=O)O; Dab = NCC[C@H](N)C(=O)O

Target: T1, PD-1/PD-L1 interaction (PE-labeled human PD-L1-Ig binding to Jurkat cell line over-expressing human PD-1) (Homo sapiens, UniProt Q15116)
T1 construct: expressed in transfected cells; host or cells: Jurkat
Assay: Jurkat-PD-1 Cell Binding High-Content Screening Assay (CBA)
Details: Jurkat-hPD-1 cells, PE-labeled PD-L1-Ig 20 nM final; read-out: Jurkat HPD1 PDL1 IC50
Procedure, shortened: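 Binding of 20 nM (final) PE-tagged PD-L1-Ig to compound-pretreated Jurkat-hPD-1 cells was measured by high-content imaging after 1 h. Pretreatment ran 2 h at 37 °C in DMEM with 10% fetal calf serum.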

T1 sequence (Q15116 25-288): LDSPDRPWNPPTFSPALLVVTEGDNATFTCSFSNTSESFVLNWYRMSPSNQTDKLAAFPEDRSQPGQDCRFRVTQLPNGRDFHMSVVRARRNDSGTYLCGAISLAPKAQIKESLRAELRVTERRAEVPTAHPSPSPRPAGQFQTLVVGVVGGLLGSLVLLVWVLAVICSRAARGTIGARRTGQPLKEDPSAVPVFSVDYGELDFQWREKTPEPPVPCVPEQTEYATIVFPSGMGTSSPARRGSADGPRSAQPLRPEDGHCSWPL

Row | IC50 | SMILES
1 | 13.5 nM | COC[C@@H]1NC(=O)CSC[C@@H](C(=O)N[C@@H](CCN)C(=O)NCCCCCCCCCCCCC(=O)O)NC(=O)[C@H](Cc2c[nH]cn2)NC(=O)[C@H](C(C)(C)O)NC(=O)[C@H](CC2CCCCC2)NC(=O)[C@H](CCN)NC(=O)[C@@H](CC(C)C)NC(=O)[C@H](C)N(C)C(=O)[C@H](CCC(N)=O)NC(=O)[C@H](Cc2ccc(-c3ccccc3)cc2)NC(=O)[C@H](Cc2ccc(C(=O)O)cc2)NC(=O)[C@H](Cc2cccc(C(F)(F)F)c2)NC(=O)[C@H](CC(=O)O)NC(=O)[C@H](Cc2ccc(OCC(=O)O)cc2)NC1=O [Example 1137] ({CH2CO}-S(Me)Y(Carboxymethyl)D[Phe(3-CF3)][Phe(4-COOH)][Bip]Q[NMeA][dL][Dab][Cha][Val(3-OH)]HC[Dab]-{NH(CH2)12COOH}; thioether N-14)
2 | 11.2 nM | COC[C@@H]1NC(=O)CSC[C@@H](C(=O)N[C@@H](CCN)C(=O)NCCCCCCCCCCCCC(=O)O)NC(=O)[C@H](CC(=O)O)NC(=O)[C@H](C(C)(C)O)NC(=O)[C@H](CC2CCCCC2)NC(=O)[C@H](CCN)NC(=O)[C@@H](CC(C)C)NC(=O)[C@H](C)N(C)C(=O)[C@H](CCCNC(N)=O)NC(=O)[C@H](Cc2ccc(-c3ccccc3)cc2)NC(=O)[C@H](Cc2ccc(C(=O)O)cc2)NC(=O)[C@H](Cc2cccc(C(F)(F)F)c2)NC(=O)[C@H](CC(=O)O)NC(=O)[C@H](Cc2ccc(OCC(=O)O)cc2)NC1=O [Example 1138] ({CH2CO}-S(Me)Y(Carboxymethyl)D[Phe(3-CF3)][Phe(4-COOH)][Bip][Cit][NMeA][dL][Dab][Cha][Val(3-OH)]DC[Dab]-{NH(CH2)12COOH}; thioether N-14)
3 | 12.7 nM | COC[C@@H]1NC(=O)CSC[C@@H](C(=O)N[C@@H](CCN)C(=O)NCCCCCCCCCCCCC(=O)O)NC(=O)[C@H](CCC(=O)O)NC(=O)[C@H](C(C)C)NC(=O)[C@H](CC2CCCCC2)NC(=O)[C@H](CCN)NC(=O)[C@@H](CC(C)C)NC(=O)[C@H](C)N(C)C(=O)[C@H](CCCNC(N)=O)NC(=O)[C@H](Cc2ccc(-c3ccccc3)cc2)NC(=O)[C@H](Cc2ccc(C(=O)O)cc2)NC(=O)[C@H](Cc2cccc(C(F)(F)F)c2)NC(=O)[C@H](CC(=O)O)NC(=O)[C@H](Cc2ccc(OCC(=O)O)cc2)NC1=O [Example 1139] ({CH2CO}-S(Me)Y(Carboxymethyl)D[Phe(3-CF3)][Phe(4-COOH)][Bip][Cit][NMeA][dL][Dab][Cha]VEC[Dab]-{NH(CH2)12COOH}; thioether N-14)
4 | 25.4 nM | COC[C@@H]1NC(=O)CSC[C@@H](C(=O)N[C@@H](CCN)C(=O)NCCCCCCCCCCCCC(=O)O)NC(=O)[C@H](CO)NC(=O)[C@H](C(C)(C)O)NC(=O)[C@H](CC2CCCCC2)NC(=O)[C@H](CCN)NC(=O)[C@@H](CC(C)C)NC(=O)[C@H](C)N(C)C(=O)[C@H](CCCNC(N)=O)NC(=O)[C@H](Cc2ccc(-c3ccccc3)cc2)NC(=O)[C@H](Cc2ccc(C(=O)O)cc2)NC(=O)[C@H](Cc2cccc(C(F)(F)F)c2)NC(=O)[C@H](CC(=O)O)NC(=O)[C@H](Cc2ccc(OCC(=O)O)cc2)NC1=O [Example 1140] ({CH2CO}-S(Me)Y(Carboxymethyl)D[Phe(3-CF3)][Phe(4-COOH)][Bip][Cit][NMeA][dL][Dab][Cha][Val(3-OH)]SC[Dab]-{NH(CH2)12COOH}; thioether N-14)
5 | 18.2 nM | COC[C@@H]1NC(=O)CSC[C@@H](C(=O)N[C@@H](CCN)C(=O)NCCCCCCCCCCCCC(=O)O)NC(=O)[C@H](Cc2c[nH]cn2)NC(=O)[C@H](C(C)(C)O)NC(=O)[C@H](CC2CCCCC2)NC(=O)[C@H](CCN)NC(=O)[C@@H](CC(C)C)NC(=O)[C@H](C)N(C)C(=O)[C@H](CCCNC(N)=O)NC(=O)[C@H](Cc2ccc(-c3ccccc3)cc2)NC(=O)[C@H](Cc2ccc(C(=O)O)cc2)NC(=O)[C@H](Cc2cccc(C(F)(F)F)c2)NC(=O)[C@H](CC(=O)O)NC(=O)[C@H](Cc2ccc(OCC(=O)O)cc2)NC1=O [Example 1141] ({CH2CO}-S(Me)Y(Carboxymethyl)D[Phe(3-CF3)][Phe(4-COOH)][Bip][Cit][NMeA][dL][Dab][Cha][Val(3-OH)]HC[Dab]-{NH(CH2)12COOH}; thioether N-14)
6 | 21.4 nM | CC(C)C[C@H]1NC(=O)[C@H](C)N(C)C(=O)[C@H](CCC(N)=O)NC(=O)[C@H](Cc2ccc(-c3ccccc3)cc2)NC(=O)[C@H](Cc2ccc(C(=O)O)cc2)NC(=O)[C@H](Cc2cccc(C(F)(F)F)c2)NC(=O)[C@H](CC(=O)O)NC(=O)[C@H](Cc2ccc(OCC(=O)O)cc2)NC(=O)[C@H](Cc2ccc(C(=O)O)cc2)NC(=O)CSC[C@@H](C(=O)N[C@@H](CCN)C(=O)NCCCCCCCCCCCCC(=O)O)NC(=O)[C@H](CCC(=O)O)NC(=O)[C@H](C(C)C)NC(=O)[C@H](CC2CCCCC2)NC(=O)[C@H](CCN)NC1=O [Example 1143] ({CH2CO}-[Phe(4-COOH)]Y(Carboxymethyl)D[Phe(3-CF3)][Phe(4-COOH)][Bip]Q[NMeA][dL][Dab][Cha]VEC[Dab]-{NH(CH2)12COOH}; thioether N-14)
7 | 13.2 nM | CC(C)C[C@H]1NC(=O)[C@H](C)N(C)C(=O)[C@H](CCCNC(N)=O)NC(=O)[C@H](Cc2ccc(-c3ccccc3)cc2)NC(=O)[C@H](Cc2ccc(C(=O)O)cc2)NC(=O)[C@H](Cc2cccc(C(F)(F)F)c2)NC(=O)[C@H](CC(=O)O)NC(=O)[C@H](Cc2ccc(OCC(=O)O)cc2)NC(=O)[C@H](Cc2ccc(C(=O)O)cc2)NC(=O)CSC[C@@H](C(=O)N[C@@H](CCN)C(=O)NCCCCCCCCCCCCC(=O)O)NC(=O)[C@H](CCC(=O)O)NC(=O)[C@H](C(C)C)NC(=O)[C@H](CC2CCCCC2)NC(=O)[C@H](CCN)NC1=O [Example 1147] ({CH2CO}-[Phe(4-COOH)]Y(Carboxymethyl)D[Phe(3-CF3)][Phe(4-COOH)][Bip][Cit][NMeA][dL][Dab][Cha]VEC[Dab]-{NH(CH2)12COOH}; thioether N-14)

More lines, now with the values behind:

Row | SMILES | IC50
8 | CC(C)C[C@H]1NC(=O)[C@H](C)N(C)C(=O)[C@H](CCC(N)=O)NC(=O)[C@H](Cc2ccc(-c3ccccc3)cc2)NC(=O)[C@H](Cc2ccc(C(=O)O)cc2)NC(=O)[C@H](Cc2cccc(C(F)(F)F)c2)NC(=O)[C@H](CC(=O)O)NC(=O)[C@H](Cc2ccc(OCC(=O)O)cc2)NC(=O)[C@H](Cc2ccc(C(=O)O)cc2)NC(=O)CSC[C@@H](C(=O)N[C@@H](CCN)C(=O)NCCCCCCCCCCCCC(=O)O)NC(=O)[C@H](CC(=O)O)NC(=O)[C@H](C(C)(C)O)NC(=O)[C@H](CC2CCCCC2)NC(=O)[C@H](CCN)NC1=O [Example 1142] ({CH2CO}-[Phe(4-COOH)]Y(Carboxymethyl)D[Phe(3-CF3)][Phe(4-COOH)][Bip]Q[NMeA][dL][Dab][Cha][Val(3-OH)]DC[Dab]-{NH(CH2)12COOH}; thioether N-14) | 24.8 nM
9 | CC(C)C[C@H]1NC(=O)[C@H](C)N(C)C(=O)[C@H](CCC(N)=O)NC(=O)[C@H](Cc2ccc(-c3ccccc3)cc2)NC(=O)[C@H](Cc2ccc(C(=O)O)cc2)NC(=O)[C@H](Cc2cccc(C(F)(F)F)c2)NC(=O)[C@H](CC(=O)O)NC(=O)[C@H](Cc2ccc(OCC(=O)O)cc2)NC(=O)[C@H](Cc2ccc(C(=O)O)cc2)NC(=O)CSC[C@@H](C(=O)N[C@@H](CCN)C(=O)NCCCCCCCCCCCCC(=O)O)NC(=O)[C@H](CO)NC(=O)[C@H](C(C)(C)O)NC(=O)[C@H](CC2CCCCC2)NC(=O)[C@H](CCN)NC1=O [Example 1144] ({CH2CO}-[Phe(4-COOH)]Y(Carboxymethyl)D[Phe(3-CF3)][Phe(4-COOH)][Bip]Q[NMeA][dL][Dab][Cha][Val(3-OH)]SC[Dab]-{NH(CH2)12COOH}; thioether N-14) | 14 nM
10 | CC(C)C[C@H]1NC(=O)[C@H](C)N(C)C(=O)[C@H](CCC(N)=O)NC(=O)[C@H](Cc2ccc(-c3ccccc3)cc2)NC(=O)[C@H](Cc2ccc(C(=O)O)cc2)NC(=O)[C@H](Cc2cccc(C(F)(F)F)c2)NC(=O)[C@H](CC(=O)O)NC(=O)[C@H](Cc2ccc(OCC(=O)O)cc2)NC(=O)[C@H](Cc2ccc(C(=O)O)cc2)NC(=O)CSC[C@@H](C(=O)N[C@@H](CCN)C(=O)NCCCCCCCCCCCCC(=O)O)NC(=O)[C@H](Cc2c[nH]cn2)NC(=O)[C@H](C(C)(C)O)NC(=O)[C@H](CC2CCCCC2)NC(=O)[C@H](CCN)NC1=O [Example 1145] ({CH2CO}-[Phe(4-COOH)]Y(Carboxymethyl)D[Phe(3-CF3)][Phe(4-COOH)][Bip]Q[NMeA][dL][Dab][Cha][Val(3-OH)]HC[Dab]-{NH(CH2)12COOH}; thioether N-14) | 11.2 nM
11 | CC(C)C[C@H]1NC(=O)[C@H](C)N(C)C(=O)[C@H](CCCNC(N)=O)NC(=O)[C@H](Cc2ccc(-c3ccccc3)cc2)NC(=O)[C@H](Cc2ccc(C(=O)O)cc2)NC(=O)[C@H](Cc2cccc(C(F)(F)F)c2)NC(=O)[C@H](CC(=O)O)NC(=O)[C@H](Cc2ccc(OCC(=O)O)cc2)NC(=O)[C@H](Cc2ccc(C(=O)O)cc2)NC(=O)CSC[C@@H](C(=O)N[C@@H](CCN)C(=O)NCCCCCCCCCCCCC(=O)O)NC(=O)[C@H](CC(=O)O)NC(=O)[C@H](C(C)(C)O)NC(=O)[C@H](CC2CCCCC2)NC(=O)[C@H](CCN)NC1=O [Example 1146] ({CH2CO}-[Phe(4-COOH)]Y(Carboxymethyl)D[Phe(3-CF3)][Phe(4-COOH)][Bip][Cit][NMeA][dL][Dab][Cha][Val(3-OH)]DC[Dab]-{NH(CH2)12COOH}; thioether N-14) | 13.7 nM
12 | CC(C)C[C@H]1NC(=O)[C@H](C)N(C)C(=O)[C@H](CCCNC(N)=O)NC(=O)[C@H](Cc2ccc(-c3ccccc3)cc2)NC(=O)[C@H](Cc2ccc(C(=O)O)cc2)NC(=O)[C@H](Cc2cccc(C(F)(F)F)c2)NC(=O)[C@H](CC(=O)O)NC(=O)[C@H](Cc2ccc(OCC(=O)O)cc2)NC(=O)[C@H](Cc2ccc(C(=O)O)cc2)NC(=O)CSC[C@@H](C(=O)N[C@@H](CCN)C(=O)NCCCCCCCCCCCCC(=O)O)NC(=O)[C@H](CO)NC(=O)[C@H](C(C)(C)O)NC(=O)[C@H](CC2CCCCC2)NC(=O)[C@H](CCN)NC1=O [Example 1148] ({CH2CO}-[Phe(4-COOH)]Y(Carboxymethyl)D[Phe(3-CF3)][Phe(4-COOH)][Bip][Cit][NMeA][dL][Dab][Cha][Val(3-OH)]SC[Dab]-{NH(CH2)12COOH}; thioether N-14) | 17.8 nM
